The values that follow come from the NIST ThermoML archive (doi:10.1021/je101302p).

Numbers after ± are expanded uncertainties.

The conditions of this series: Liquid; for mass density: 298.15 K, 101.33 kPa, Vibrating tube method.

In general, mass density refers to mass per unit of volume. The term vapor or sublimation pressure denotes the equilibrium pressure above the liquid or solid. Turning to `CCCO` [propan-1-ol], the mass density stood at 804.269 ± 0.19 kg/m3. Besides, the “vapor or sublimation pressure” value (370.29 K) is listed as 101.3 ± 3.4 kPa.
Take `CCC(=O)O` [propanoic acid]: the mass density is reported as 993.722 ± 0.3 kg/m3. Also, the “vapor or sublimation pressure” value (414.53 K) is recorded as 101.3 ± 3.4 kPa.
As for `CCCOC(=O)CC` [propyl propanoate], the mass density is given as 881.619 ± 0.3 kg/m3. Moreover, the “vapor or sublimation pressure” value (395.1 K) is 101.3 ± 1.7 kPa.
